Read-outs that look alike come from different tables or passages of the source.
Legend:
[1] = parameters: method as in earlier work; conditions: mice; ref 25 (Salako); cited from earlier work
[2] = test system: P. falciparum K1; experiment: In vitro antiplasmodial pLDH assay, chloroquine-resistant strain K1; format: cell-based; conditions: Plasmodium falciparum, read-out: IC50 against K1
Protocol: (§1) The parasites were continuously cultured in vitro according to the method described by Trager and Jensen but with modifications. The cultures were maintained at 37 °C in O-positive (O^+) human erythrocytes in complete culture medium, which contained RPMI 1640 (Gibco-BRL Laboratories) growth medium supplemented with 25 mM 4-(2-hydroxyethyl)piperazine-1-ethanesulfonic acid (HEPES) (Sigma-Aldrich Chemical Company) buffer, 22 mM glucose (Sigma), 5 g/l albumax (Gibco-BRL Laboratories), 25 mM sodium carbonate (Sigma) and 0.3 mM hypoxanthine (Sigma). In order to control microbial contamination […] gentamicin (Sigma) was added to the culture medium, and to obtain a loosely synchronous ring stage, 5 % sterile aqueous D-sorbitol (Sigma) was used. The antiplasmodial assay was initiated with the parasites in the trophozoite stage and with a parasitaemia and haematocrit of 2 %.
(§2) Non-parasitized erythrocytes were used as a negative control and parasitized erythrocytes, without any test compound, were used as positive control. A full day dose–response was performed for all compounds to determine the concentration inhibiting 50 % of parasite growth (IC50 value). The plates were incubated for 48 h at 37 °C in a gassing chamber containing a mixture of 5 % CO2, 3 % O2 and 92 % […]. In order to quantify parasite viability and to determine the effect of the compounds on the parasite, a parasite lactate dehydrogenase (pLDH) assay was used as described by Makler et al., but with modifications.

[3] = test system: P. falciparum 3D7; experiment: In vitro antiplasmodial pLDH assay, chloroquine-sensitive strain 3D7; format: cell-based; conditions: Plasmodium falciparum, read-out: IC50 against 3D7
Protocol: as §1, §2

[4] = test system: P. falciparum Dd2; experiment: In vitro antiplasmodial pLDH assay, chloroquine-resistant strain Dd2; format: cell-based; conditions: Plasmodium falciparum, read-out: IC50 against Dd2
Protocol: as §1, §2

[5] = test system: Plasmodium berghei (ANKA strain); experiment: In vivo anti-malarial efficacy, Peters' 4-day test; parameters: species or system C57BL/6 mice; conditions: for % reduction of parasitemia Day 9: vs placebo
Protocol: The chloroquine-sensitive Plasmodium berghei (ANKA strain) was used to assess in vivo anti-malarial efficacy of the test compounds. The parasites were maintained in a C57BL/6 mouse by inoculation with 250 µl of a 1:1 (v/v) suspension of erythrocytes infected with P. berghei in phosphate buffered saline (PBS). On the day of the experiment the host mouse was anaesthetized intraperitoneally with a mixture of ketamine (120 mg/kg) and xylazine (16 mg/kg). Whole blood from the host mouse was drawn by cardiac puncture into a Vacuette® heparin tube and a suspension of P. berghei parasitized erythrocytes (1 × 10^7) in PBS was prepared and the test mice were infected with 200 µl of this suspension intraperitoneally.
Evaluation of the curative potential of the test compounds was performed using Peters’ 4-day test as described. The mice were dosed orally at 20 and 40 mg/kg and intravenously at 4 and 8 mg/kg 2 h post-infection and for three consecutive days (D0 to D3). On the first day (D0), blood samples were collected serially from each mouse at 0.5, 1, 3, and 7 h post-dosing in order to provide quantitative measurements of drug exposure which is needed for the sound interpretation of the efficacy of the anti-malarials. […] The mice were also dosed orally with PBS as a control. The parasitaemia was determined from the […] (D4) by preparing thin blood films from the tail of each mouse and the smears were fixed with methanol and stained with Giemsa. This was repeated every 2–3 days to monitor the efficacy of the test compounds. The formula used to calculate % parasitaemia and % reduction is described below, respectively. The data for % parasitaemia and % reduction of parasitaemia is presented in Table 4. %Parasitaemia =No.ofparasitizedRBCoutof500erythrocytes/Totalno.ofRBCcounted×100 %Reduction =Parasitamiaofplacebo-Parasitamiaoftestcompound/Parasitamiaofplacebo×100

[6] = test system: P. falciparum D10; experiment: In vitro antiplasmodial pLDH assay, chloroquine-sensitive strain D10; format: cell-based; conditions: Plasmodium falciparum, read-out: IC50 against D10
Protocol: as §1, §2

[7] = Pharmacokinetic study in uninfected C57BL/6 mice (LC-MS/MS of blood); format: in vivo; conditions: for clearance / Vd: iv; for Vd: read-out: Vss; for AUC(0-inf) / half-life: mouse; for blood levels after oral dosing: oral 20 mg/kg, uninfected mice
Protocol: A comprehensive pharmacokinetic (PK) study of compound 1 and 2 was performed on 10-week old male and female C57BL/6 mice (20–30 g) obtained from the University of Cape Town Medical School Animal Unit. The mice were housed in ventilated cages at room temperature (approximately 22 °C) with constant supply of food and water and were monitored twice daily. The study was authorized by the Faculty of Health Science Animal Research Ethics Committee before commencement: Reference No. 012/020. All the work was performed according to the guidelines established by Austin et al.. […] In each experiment a group of five animals were dosed orally (10 ml/kg) at 20 mg/kg and intravenously (5 ml/kg) via the dorsal penile vein at 4 mg/kg under anaesthesia. For oral dosage, a gavage needle was used for the administration of test compounds directly into the lower oesophagus or stomach. […] Lithium heparin-coated MiniCollect® Plasma Tubes (Lasec, South Africa) were used to collect the blood samples. The collected blood samples were placed on ice immediately after sampling, and were frozen at −80 °C until analysis. The blood samples stored at −80 °C were thawed at room temperature and then mixed by vortex to ensure homogeneity. Twenty µl of blood was mixed with 50 µl Milli-Q water (Millipore, USA) and 150 µl acetonitrile (Merck). The mixture was vortexed for 15 s, sonicated for 10 min and centrifuged at 13,000g for 5 min. The supernatant was transferred to a flat-bottomed glass insert and placed in a glass vial and placed in the autosampler for analysis. A liquid chromatography–mass spectrometry (LC/MS/MS) system was employed for the quantification of the compounds in mouse blood. The LC system employed was an ultra-fast liquid chromatography (UFLC) system (Shimadzu) and the separation of the compounds was performed on a Phenomenex, Luna 5 μm PFP (2), 100 Å, 50 mm × 2 mm analytical column. The mobile phase A consisted of 0.1 % formic acid in water (v/v) and mobile phase B consisted of acetonitrile. The flow rate was set at 500 µl/min and the temperature of the column was maintained at 40 °C. […] The detection of the compounds was performed on an AB Sciex 3200 Q-Trap mass spectrometer which was operated at unit resolution in the multiple reaction monitoring (MRM) mode. The calibration range for all the compounds was between 7.8 and 1000 ng/ml and the accuracy (% Nom) for the calibration curves was between 90.3 and 104.0 %. […] Non-compartmental analysis was performed on each individual set of data using PK Solutions 2.0 Pharmacokinetic Analysis Software (Summit Research Services, Montrose, USA). The following PK parameters were calculated: apparent terminal half-life [t½ (min)], total exposure [AUC0–α (µM min)], volume of distribution (l/kg) and plasma clearance [CL (l/min/kg)].

[8] = test system: P. falciparum chloroquine-sensitive and -resistant strains; format: cell-based, Plasmodium falciparum; conditions: highest CQR IC50 value / lowest CQS IC50 value
Description: This value provides a quantitative measurement of the antiplasmodial activity against CQR strains relative to that against CQS strains. The higher the RI value, the higher the level of resistance.

[9] = Drug exposure in P. berghei-infected mice (blood concentrations on D0); format: in vivo, C57BL/6 mice; conditions: oral 20 and 40 mg/kg
[10] = Toxicity observed in dosed mice; format: in vivo; conditions: dosed orally and intravenously
Protocol: They both presented poor PK properties following oral administration. However, the LC–MS/MS assay only detected the parent compound and no assays were conducted to measure or identify any possible metabolites. The decision to perform efficacy studies was based on the possibility that compounds 1 and 2 may have high first pass effect which may cause low bioavailability. After the infected mice were dosed orally and intravenously with compound 1 and 2, the blood concentrations were measured in P. berghei-infected mice at different time intervals to measure the exposure of the infected mice to the drug. […] High toxicity was also detected when dosed orally and intravenously. The PK studies were only conducted for 9 h, and therefore the symptoms of toxicity were not severe. However, with efficacy studies the mice are dosed every day for 4 days, and this might cause distress to the mice because the toxic effect of the drug will be more severe. The efficacy study for compound 2 is not reported in this paper.

[11] = Oral 10 mg/kg/day, 4 days (reference drug)
[12] = both sexes, C57BL/6, mouse, whole blood, 4 mg/kg, intravenous 4 mg/kg, uninfected C57BL/6 mice, blood
[13] = both sexes, whole blood, intravenous 4 mg/kg, uninfected C57BL/6 mice, blood
[14] = intravenous 4 mg/kg, uninfected C57BL/6 mice, blood, 4 mg/kg
[15] = chloroquine-resistant strain K1, 48 h, pLDH, mean of three independent experiments
[16] = chloroquine-sensitive strain 3D7, 48 h, pLDH, mean of three independent experiments
[17] = chloroquine-resistant strain Dd2, 48 h, pLDH, mean of three independent experiments
[18] = chloroquine-sensitive strain D10, 48 h, pLDH, mean of three independent experiments

Q: With `CCN(CC)CCCC(C)Nc1ccnc2cc(Cl)ccc12` (stereo not drawn) [Chloroquine, reference compound] as the compound, how does the half-life [1] read?
A: 7 h

Q: What about the oral bioavailability [1] of the same compound?
A: 79–90%

Q: What about the IC50 ([2]; K1, 48 h) of the same compound?
A: 279 ± 2 nM

Q: And the IC50 ([3]; 3D7, 48 h)?
A: 19 nM

Q: What about the IC50 ([4]; DD2, 48 h) of the same compound?
A: 180 ± 10 nM

Q: What about the “Average % parasitemia Day 4” value [5, 11] of the same compound?
A: 0%

Q: What about the “Average % parasitemia Day 6” value [5, 11] of the same compound?
A: 0%

Q: And the “Average % parasitemia Day 9” value [5, 11]?
A: 2 ± 1.6%

Q: What about the “% reduction of parasitemia Day 9” value [5, 11] of the same compound?
A: 92.0 ± 0.4%

Q: What about the IC50 ([6]; D10, 48 h) of the same compound?
A: 23 nM

Q: Which results are given for `O=c1cc(CNCCCCCCNc2ccnc3cc(Cl)ccc23)n(C2CC2)cc1OCc1ccccc1` [Compound 1]?
A: clearance [7, 12]: 28 mL/min/kg; Vd [7, 12]: 20 L/kg; concentration at 9 h ([7]; both sexes, C57BL/6, mouse, whole blood, intravenous 4 mg/kg, 9 h post-dosing, read-out: blood level after 9 h): 160 nM; AUC(0-inf) [7, 13]: 3.27 µM·h; half-life [7, 13]: 258 ± 61.2 min; CL [7, 14]: 27.6 ± 8 mL/min/kg; Vss [7, 14]: 20.1 ± 6 L/kg; oral bioavailability ([7]; mice, oral dosing, in words): poor oral bioavailability; blood levels after oral dosing [7]: below the LOQ; IC50 [2, 15]: 505 ± 100 nM; RI (resistance index) [8]: 10.7; IC50 [3, 16]: 64 ± 20 nM; IC50 [4, 17]: 463 ± 120 nM; Average % parasitemia Day 4 ([5]; IV 4 mg/kg/day, 4 days): 0.4 ± 0.4%; Average % parasitemia Day 6 ([5]; IV 4 mg/kg/day, 4 days): 1.8 ± 1.4%; Average % parasitemia Day 9 ([5]; IV 4 mg/kg/day, 4 days): 8.1 ± 5%; % reduction of parasitemia Day 9 ([5]; IV 4 mg/kg/day, 4 days, 4 mg/kg/day): 61.9 ± 26%; % reduction of parasitemia Day 9 ([5]; IV 4 mg/kg/day, 4 days, listed as compound 1, 4 mg/kg/day): 62%; Average % parasitemia Day 4 ([5]; IV 8 mg/kg/day, 4 days): 0%; Average % parasitemia Day 6 ([5]; IV 8 mg/kg/day, 4 days): 0.9 ± 0.9%; Average % parasitemia Day 9 ([5]; IV 8 mg/kg/day, 4 days): 5.1 ± 1.7%; % reduction of parasitemia Day 9 ([5]; IV 8 mg/kg/day, 4 days, 8 mg/kg/day): 82.9 ± 2.5%; % reduction of parasitemia Day 9 ([5]; IV 8 mg/kg/day, 4 days, listed as compound 1, 8 mg/kg/day): 83%; Average % parasitemia Day 4 ([5]; Oral 20 mg/kg/day, 4 days): 5.3 ± 3.9%; Average % parasitemia Day 6 ([5]; Oral 20 mg/kg/day, 4 days): 22.7 ± 10%; Average % parasitemia Day 9 ([5]; Oral 20 mg/kg/day, 4 days): 24.2 ± 5.6%; % reduction of parasitemia Day 9 ([5]; Oral 20 mg/kg/day, 4 days): 3.7 ± 5.6%; Average % parasitemia Day 4 ([5]; Oral 40 mg/kg/day, 4 days): 5.9 ± 2%; Average % parasitemia Day 6 ([5]; Oral 40 mg/kg/day, 4 days): 10.7 ± 5%; Average % parasitemia Day 9 ([5]; Oral 40 mg/kg/day, 4 days): 48.6 ± 12%; % reduction of parasitemia Day 9 ([5]; Oral 40 mg/kg/day, 4 days): −93.8 ± 49.3%; parasitaemia on day 4 in mice dosed orally ([5]; oral groups (20 and 40 mg/kg/day), day 4): ~5%; blood concentration levels in infected mice dosed orally [9]: below the detection level; IC50 [6, 18]: 47 ± 10 nM

Q: Which results are given for `CCc1c(OCc2ccccc2)c(=O)ccn1CCCCCCNc1ccnc2cc(Cl)ccc12` [Compound 2]?
A: clearance [7, 12]: 366 ± 46.6 mL/min/kg; Vd [7, 12]: 154.1 ± 1 L/kg; concentration at 2 h ([7]; both sexes, C57BL/6, mouse, whole blood, intravenous 4 mg/kg, 2 h post-dosing, read-out: blood level after 2 h): 30 nM; AUC(0-inf) [7, 13]: 0.42 µM·h; half-life [7, 13]: 42 ± 12 min; blood levels after oral dosing [7]: below the LOQ; IC50 [2, 15]: 89 ± 10 nM; RI (resistance index) [8]: 2.2; IC50 [3, 16]: 41 ± 20 nM; IC50 [4, 17]: 76 ± 10 nM; toxicity [10]: High toxicity; blood concentration levels in infected mice dosed orally [9]: below the detection level; IC50 [6, 18]: 122 ± 30 nM
